# Results from US12691092B2, “Method for reducing cutaneous skin scarring by pre-emptive priming and compounds and compositions for its implementation” (SOS SCIENCE OF SKIN LTD, priority 2020, dated 2026).
# What was measured:
# langerin = assay: Langerin immunohistochemical marker in scar biopsies; type: in vivo, human; settings: week 4, group-1 only (7-day pre-injury priming), p=0.02
# Method: (§1) A double-blind randomized placebo-controlled trial was conducted using a temporal punch-biopsy model. The punch biopsy and topical application methodology used in the study is illustrated in FIG. 1, namely showing pre-injury pre-emptive priming (7-days), pre-injury pre-emptive priming (3-days), day of injury (immediate application on day 0), post-injury (delayed 2 weeks post injury) including biopsy time points and time of topical applications. Each group applied both placebo and topical formulations twice daily for the duration of the study until week 8, with only the starting time point differing between groups Participants were split into 4 groups (n=10 in each group) in order to compare different modes (timings) of commencement of the topical application: • Group-1: Pre-emptive Priming (7-days): pre-injury • Group-2: Pre-emptive Priming (3-days): pre-injury • Group-3: Immediate (0-day): day-of-injury • Group-4: Delayed (14-days): post-injury Clinical quantitative devices were used to objectively monitor cutaneous healing at weekly intervals and punch biopsies were performed on day 0 (uninjured skin) and at weeks 4 and 8 for protein and gene expression analyses. […] Excisional skin biopsies in upper arms were evaluated weekly with multiple quantitative devices over an 8-week period. […]
# [1] = tested on: Nuclear factor erythroid 2-related factor 2 (NRF2); assay: NRF2 immunohistochemical marker (anti-oxidant effect); type: in vivo, human; settings: scar samples, weeks 4 and 8
# Method: as §1
structure (smiles),measurement,setting,value
"O=C(OC1Cc2c(O)cc(O)cc2OC1c1cc(O)c(O)c(O)c1)c1cc(O)c(O)c(O)c1 (single isomer, unassigned; (-)) [EGCG, (-)-epigallocatechin-3-gallate]",langerin reduction in EGCG-treated samples compared to placebo,langerin,13%
same,"NRF2 amounts, EGCG samples compared to placebo",[1],"slightly higher amounts of NRF2 compared to placebo samples, although not significantly"
